Reference: paper PMC6934184, “Selective DNA-PKcs inhibition extends the therapeutic index of localized radiotherapy and chemotherapy” (The Journal of Clinical Investigation, 2019)

Target: T1, AKT1 (PKB alpha) (Homo sapiens, UniProt P31749)
T1 construct: purchased Thermo Fisher Scientific (Life Technologies) SelectScreen
Experiment: SelectScreen Z'LYTE
Format: biochemical
Procedure, shortened: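 Compound tested in SelectScreen activity assays, Z'LYTE for CSF1R, CDK1/cyclin B and MAP2K6 and Adapta for CAMK1. ATP for CAMK1 was listed as 10, and Km app was used for CSF1R. Results are expressed in percent.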

T1 sequence (P31749 whole entry): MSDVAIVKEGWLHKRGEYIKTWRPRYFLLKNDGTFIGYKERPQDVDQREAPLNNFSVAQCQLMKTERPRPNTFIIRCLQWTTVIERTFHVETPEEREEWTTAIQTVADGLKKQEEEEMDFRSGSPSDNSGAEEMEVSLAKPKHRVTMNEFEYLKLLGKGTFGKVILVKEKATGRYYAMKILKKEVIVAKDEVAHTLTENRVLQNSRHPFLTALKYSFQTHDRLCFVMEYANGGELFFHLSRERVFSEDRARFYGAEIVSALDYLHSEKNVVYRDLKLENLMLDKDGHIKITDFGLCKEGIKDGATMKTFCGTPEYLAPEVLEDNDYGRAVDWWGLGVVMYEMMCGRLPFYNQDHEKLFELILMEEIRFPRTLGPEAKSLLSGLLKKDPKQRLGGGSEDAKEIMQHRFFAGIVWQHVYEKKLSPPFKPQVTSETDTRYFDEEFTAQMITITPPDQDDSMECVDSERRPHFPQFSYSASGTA

## CN(C(=O)CN1CCOCC1)c1ccc2sc3c(-c4cccc5c(=O)cc(N6CC7CCC(C6)O7)oc45)cccc3c2c1 [NU5455]
  inhibition at 1 µM: 0.5%
